Measurements reported in patent US20050113309A1, “Crystalline forms(2s)-n-5[amino(imino)methyl]-2-thienylmethyl-1-(2r)-2[(carboxymethyl) amino]-3,3-diphenylpropanoyl-2-pyrrolidinecarboxamide nh2o” (priority 2002, published 2005).
Entries after “also recorded” stand apart in the source; their conditions may differ.

Key:
[1] = Stress stability test (storage at −20° C., 50° C., 70° C. for 4 weeks); format: physicochemical; settings: for Discoloration / change in appearance: 4 weeks' storage; for Color / Stability compared with the amorphous form: stress stability test; for Color: temperature not given (change in appearance at 70° C.)
Method: In order to compare physicochemical stability among the crystalline Form VI, the crystalline Form I, and the amorphous form prepared in Examples 7, 8, and Comparative Example 1, the stress stability test was conducted by placing their samples at the temperatures of −20° C., 50° C., and 70° C. for 4 weeks.

[2] = Powder X-ray diffraction during moisture absorption and dehumidification (crystal form stability to relative humidity); format: physicochemical; settings: moisture absorption / relative humidity 33-93%
Method: 40 mg of the above crystalline Form I was thinly coated onto a sample holder. And, immediately after the sample was dried under vacuum in the presence of P2O5, and after the sample was placed for moisture absorption at each relative humidity of 33%, 53%, 64%, 75%, and 93% for two days or more, respectively, the powder X-ray diffraction test was conducted on the sample according to the conditions represented in above Test example 1 to observe change of the crystalline formi during moisture absorption. While lowering the relative humidity, the same test was repeated to observe change of the crystalline form during dehumidification.
In order to obtain each relative humidity above, as shown in the table below, saturated aqueous solutions of salts were prepared, then placed in a desiccator, and the desiccator was sealed.
40 mg of the above crystalline Form IV was thinly coated onto a sample holder. Immediately after the sample was dried under vacuum in the presence of P2O5, and after the sample was placed for moisture absorption at each relative humidity of 33%, 53%, 64%, 75%, and 93% for two days or more, respectively, the powder X-ray diffraction test of the sample was conducted according to the conditions represented in Test example 1 above to observe change of the crystalline form during moisture absorption. While lowering the relative humidity, the same test was repeated to observe change of the crystalline form during dehumidification.
In order to obtain each relative humidity above, as shown in Table 3 of Test example 2, saturated aqueous solutions of salts were prepared and then placed in a desiccator, and the desiccator was sealed.

Structure (SMILES): N=C(N)c1ccc(CNC(=O)[C@@H]2CCCN2C(=O)[C@H](NCC(=O)O)C(c2ccccc2)c2ccccc2)s1 [Amorphous form, (2S)-N-5-[amino(imino)methyl]-2-thienylmethyl-1-(2R)-2-[(carboxymethyl)amino]-3,3-diphenylpropanoyl-2-pyrrolidinecarboxamide]
- Residual rate after 4 weeks ([1]; 50° C., 4 weeks): 96%
- Residual rate after 4 weeks ([1]; 50° C., 4 weeks, listed as amorphous form): 96%
- Residual rate after 4 weeks ([1]; 70° C., 4 weeks): 87%
- Discoloration / change in appearance ([1]; 70° C.): discoloration; also recorded: change in appearance
- Residual rate after 4 weeks ([1]; 70° C., 4 weeks, listed as amorphous form): 87%
- Color ([1]; 4 weeks): Yellow
- Change in appearance ([1]; −20° C. and 50° C., 4 weeks): did not show any change in appearance
- Residual rate after 4 weeks ([1]; −20° C., 4 weeks): 96%
- Residual rate after 4 weeks ([1]; −20° C., 4 weeks, listed as amorphous form): 96%

Structure (SMILES): N=C(N)c1ccc(CNC(=O)[C@@H]2CCCN2C(=O)[C@H](NCC(=O)O)C(c2ccccc2)c2ccccc2)s1 [Form I, (2S)-N-5-[amino(imino)methyl]-2-thienylmethyl-1-(2R)-2-[(carboxymethyl)amino]-3,3-diphenylpropanoyl-2-pyrrolidinecarboxamide]
- Residual rate after 4 weeks ([1]; 50° C., 4 weeks): 99%
- Residual rate after 4 weeks ([1]; 70° C., 4 weeks): 100%
- Discoloration / change in appearance ([1]; 70° C.): stable without discoloration
- Stability compared with the amorphous form ([1]; 4 weeks): remarkably superior stability over the amorphous form
- Color ([1]; 4 weeks): Ivory
- Residual rate after 4 weeks ([1]; −20° C., 4 weeks): 99%

Structure (SMILES): N=C(N)c1ccc(CNC(=O)[C@@H]2CCCN2C(=O)[C@H](NCC(=O)O)C(c2ccccc2)c2ccccc2)s1 [Form II, (2S)-N-5-[amino(imino)methyl]-2-thienylmethyl-1-(2R)-2-[(carboxymethyl)amino]-3,3-diphenylpropanoyl-2-pyrrolidinecarboxamide]
- Change of crystal structure / crystalline form with relative humidity [2]: changed to the crystalline Form III

Structure (SMILES): N=C(N)c1ccc(CNC(=O)[C@@H]2CCCN2C(=O)[C@H](NCC(=O)O)C(c2ccccc2)c2ccccc2)s1 [Form IV, (2S)-N-5-[amino(imino)methyl]-2-thienylmethyl-1-(2R)-2-[(carboxymethyl)amino]-3,3-diphenylpropanoyl-2-pyrrolidinecarboxamide]
- Discoloration / change in appearance ([1]; 70° C.): stable without discoloration

Structure (SMILES): N=C(N)c1ccc(CNC(=O)[C@@H]2CCCN2C(=O)[C@H](NCC(=O)O)C(c2ccccc2)c2ccccc2)s1 [Form V, (2S)-N-5-[amino(imino)methyl]-2-thienylmethyl-1-(2R)-2-[(carboxymethyl)amino]-3,3-diphenylpropanoyl-2-pyrrolidinecarboxamide]
- Change of crystal structure / crystalline form with relative humidity [2]: changed into the crystalline Form VI

Structure (SMILES): N=C(N)c1ccc(CNC(=O)[C@@H]2CCCN2C(=O)[C@H](NCC(=O)O)C(c2ccccc2)c2ccccc2)s1 [Form VI, (2S)-N-5-[amino(imino)methyl]-2-thienylmethyl-1-(2R)-2-[(carboxymethyl)amino]-3,3-diphenylpropanoyl-2-pyrrolidinecarboxamide]
- Residual rate after 4 weeks ([1]; 50° C., 4 weeks): 99%
- Residual rate after 4 weeks ([1]; 70° C., 4 weeks): 100%
- Stability compared with the amorphous form ([1]; 4 weeks): remarkably superior stability over the amorphous form
- Color ([1]; 4 weeks): Ivory
- Residual rate after 4 weeks ([1]; −20° C., 4 weeks): 101%
- Change of crystal structure / crystalline form with relative humidity [2]: crystal structure is not changed under any relative humidity
